Data as given in patent US20220315890A1, “NERVE CELL AND APPLICATION THEREOF” (FUJIFILM Corporation, priority 2021, published 2022).

What was measured:
[1] = molecular target: T1, tau aggregation in hiPSC-derived nerve cells overexpressing tau (1N4R) (Homo sapiens, UniProt P10636); test: Tau aggregation: Tau oligomer antibody (T22)-positive protrusion length standardized with 4R tau antibody-positive protrusion length; type: cell-based; settings: at the compound concentration at which a cytoprotective action was exhibited; fluorescent staining; FIG. 8
T1 construct: expressed in transfected cells; host or cells: human iPS cell-derived nerve cells (Ngn2 / miR-9/9*-124 induced), transduced with CSII-TRE-hTau (1N4R)-IRES-Zeo lentivirus, DOX-induced
T1 sequence (P10636 1-412 isoform P10636-7): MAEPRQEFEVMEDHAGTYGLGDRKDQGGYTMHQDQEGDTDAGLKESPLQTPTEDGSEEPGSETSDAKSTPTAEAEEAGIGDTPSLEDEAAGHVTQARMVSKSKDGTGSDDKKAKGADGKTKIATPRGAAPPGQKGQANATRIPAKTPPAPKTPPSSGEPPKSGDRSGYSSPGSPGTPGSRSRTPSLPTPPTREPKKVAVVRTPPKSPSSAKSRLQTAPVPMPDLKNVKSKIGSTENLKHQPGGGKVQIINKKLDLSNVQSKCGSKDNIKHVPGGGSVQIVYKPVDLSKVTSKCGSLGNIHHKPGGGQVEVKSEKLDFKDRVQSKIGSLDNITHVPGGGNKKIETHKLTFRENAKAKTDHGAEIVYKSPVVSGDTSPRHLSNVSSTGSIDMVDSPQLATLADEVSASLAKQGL
Experimental: (§1) Frozen nerve cells were thawed in a hot water bath and plated on a 96-well plate at the number of cells of about 3×10^4 cells/well or on a 12-well plate at about 30×10^4 cells/well, where the plates had been coated with poly-D-lysine (PDL) and iMatrix (Nippi, Incorporated), in a neural replating medium containing DOX (a medium obtained by adding 2% of a B27 Plus supplement, 1% of a Culture One supplement, 200 μmol/L of dbcAMP, 200 μmol/L of L-ascorbic acid, and 2 μg/mL of DOX to a Neurobasal plus:DMEM/F12 HAM=1:1 medium). In addition, 1 μmol/L of Tau Accell siRNA (Dharmacon, Inc., #A-012488-13) described in (7) below or a compound described in (9) below was added thereto. After the culture in a CO2 incubator at 37° C. for 2 days, the cells were […] and cultured for about 7 days, and then various evaluations were carried out.
The nerve cells after the overexpression of tau according to the method (4) were subjected to fluorescent staining using a tau oligomer antibody (T22) (Merck Millipore).
The cytoprotective action of the compound was measured by a CellTiter Glo assay. The effect on tau aggregation was quantified by standardizing the Tau oligomer antibody-positive protrusion length in the neurite obtained by fluorescent staining with the 4R tau antibody-positive protrusion length.

[2] = system: hiPSC-derived nerve cells overexpressing tau (1N4R); test: Nerve cell death / cell survival by CellTiter Glo assay after overexpression of tau; type: cell-based, human; settings: compound added at replating, 2 days before lentivirus infection, cultured about 7 days, FIG. 8
Experimental: as §1
The decrease in cell survival rate due to overexpression of tau according to the method (4) was confirmed by the CellTiter Glo assay (Promega Corporation). It was confirmed that about 20% to 90% of nerve cell death occurred due to overexpression of tau depending on the amount of lentivirus.
According to the method (4), the drug efficacy of methylene blue and isoproterenol, which had been reported to have an inhibitory action on tau aggregation in nerve cells after the overexpression of tau, and a microtubule stabilizer epothilone D was evaluated. The cytoprotective action of the compound was measured by a CellTiter Glo assay. The effect on tau aggregation was quantified by standardizing the Tau oligomer antibody-positive protrusion length in the neurite obtained by fluorescent staining with the 4R tau antibody-positive protrusion length.

| Structure (SMILES) | effect on tau aggregation (tau polymerization) [1] | cytoprotective action (CellTiter Glo assay) [2] |
| --- | --- | --- |
| CN(C)c1ccc2nc3ccc(=[N+](C)C)cc-3sc2c1 [methylene blue] | partial inhibitory action on tau aggregation | partial cytoprotective action |
| C/C1=C/C[C@@H](/C(C)=C/c2csc(C)n2)OC(=O)C[C@H](O)C(C)(C)C(=O)[C@H](C)[C@@H](O)[C@@H](C)CCC1 [epothilone D] | not changed | partial cytoprotective action |
| CC(C)NCC(O)c1ccc(O)c(O)c1 (stereo not drawn) [isoproterenol] | partial inhibitory action on tau aggregation | partial cytoprotective action |
